{"source": "patent US20190352341A1", "about": "“MODIFIED PEPTIDES AND THEIR USE FOR TREATING SYSTEMIC LUPUS ERYTHEMATOSUS” (IMMUPHARMA FRANCE SA, priority 2018, published 2019)", "key": {"[1]": {"test_system": "SLE patients", "test": "Clinical trial in SLE patients (SRI-4 response)", "assay_type": "in vivo, human", "method": "Human patients with SLE were administered the “standard of care” for SLE+placebo or SEQ ID NO.:1 (serine 10 phosphorylated) (“P140”). The P140 peptide was administered in a solution with mannitol; the placebo was a mannitol solution only. Patients were treated for 52 weeks.\nBased on the protocol and the commonly accepted study design, there were two groups of patients: (1) patients receiving P140 plus “Standard of Care” and (2) patients receiving placebo plus “Standard of Care”. “Standard of Care” includes treatment with other drugs such as steroids, anti-malarials, methotrexate etc. No patients were treated just with placebo, but all were receiving other drug treatments. The definition of a “responder” is based on the SLE Responder Index (SRI-4) score, which requires a reduction of at least four points in this score. Therefore, patients who improve by less than four points are counted as non-responders, but also no distinction is made between patients who improve by more than 4 points, all being equal “responders”.\nThe SRI-4 score comprises criteria from three different internationally validated indices, SELENA-SLE Disease Activity Index (SELENA-SLEDAI), Physician Global Assessment (PGA) and the British Isles Lupus Assessment Group (BILAG) 2004. See Luijten, K. M. et al., Autoimmun Rev. 2012 March; 11(5):326-9."}, "[2]": {"test_system": "MRL/lpr mice", "test": "MRL/lpr mouse model of Gougerot-Sjögren syndrome (salivary glands)", "assay_type": "in vivo", "method": "In this study MRL/lpr female 11-12 week old mice were used with 10 mice per group for statistical analysis. Each mouse received a single injection by retro-orbital, 100 μg of peptide P140 of 100 μl in […] NaCl. After 5 days, the mouse blood was collected in heparinized tube and salivary glands (GSS) were removed and placed in Eppendorf tubes containing PBS pH 7.4.\nThe number of foci site (FS) is determined for each mouse. A focus is defined as an aggregate of 50 or more cells.\nThe level of inflammation SG is determined semiquantitatively by a scoring system (0-3 scale): Grade 0: no inflammatory cells; Grade 1: few perivascular inflammatory and periductal Infiltrates (<100 cells); Grade 2: moderate number of perivascular inflammatory and periductal Infiltrates (100-500 cells); Grade 3: extensive inflammation with inflammatory foci broad (>500 cells).\nCells of total salivary glands stained with fluorescently were labeled antibodies for 40 min at 4° C., Were Collected data by FACSCalibur.\nThe weight of salivary glands Was Measured after-excision. DNase I (1 mg/ml) and collagenase D (50 μg/ml) were used to digest the salivary glands. Total cell counts were evaluated after the digestion.\nThe MRL/lpr mice (10 mice per arm) were injected with peptide P140 (100 μl/mouse iv). Five days after injection the mice were sacrificed and SGs collected as indicated above. The tissue was cut by the cryostat sections of 5 μm. The sections were labeled with hematoxylin/eosin staining is the method most frequently used in tissue histology. The level of inflammation and the number of FS were determined (FIGS. 19 and 20). Representative pictures are from sample control group 4 and group Treated sample (Bar 500 μm)."}, "[3]": {"test": "Stability of the peptides at 37° C. (HPLC peak area)", "assay_type": "physicochemical", "conditions": "for 95% of stability (predicted): time to 95% from linear equation; for Stability (%) Linear equation: slope: y = stability %, x = days; for Stability (%): 10% mannitol", "method": "The stability of the peptide SEQ ID NO: 1 in which the serine at position 10 is phosphorylated and the methionine at position 4 is oxydized (P140(MO)), and the peptide SEQ ID NO: 1 in which the serine at position 10 is phosphorylated (P140) was measured at 37° C., in a solution of 10% (v/v) mannitol. For each peptide, 3 concentrations have been tested: 200, 100 and 50 μg/mL.\nAt the indicated time, the integrity of P140 and P140(MO) peptides was measured in saline by high-performance liquid chromatography from the area of the peak corresponding to the intact peptide.\nStability is measured by using the HPLC peak surface."}, "[4]": {"conditions": "5 days after one single iv injection, flow cytometry"}}, "note": "Numbered stars: 1 amine (or outer) side, 2 acyl side, 3 side chain; on linkers, the order of the positions; unused ones are H or OH. Square brackets hold non-standard residues; d marks the D form. Peptide text beside a SMILES is read from it. ξ: configuration not given here. X1 = CSCC[C@H](NC(=N)[C@H](Cc1c[nH]cn1)N[*:1])C(=O)[*:2]; pS = N[C@@H](COP(=O)(O)O)C(=O)O; Ile(3ξ) = CCC(C)[C@H](N)C(=O)O", "data": [{"compound": "CCC(C)[C@H](NC(=O)[C@H](Cc1ccccc1)NC(=O)[C@H](C)NC(=O)[C@H](Cc1ccc(O)cc1)NC(=O)CNC(=O)[C@H](CCCNC(=N)N)NC(=O)[C@@H]1CCCN1C(=O)[C@H](CCCCN)NC(=O)CNC(=O)[C@H](COP(=O)(O)O)NC(=O)[C@H](CCCNC(=N)N)NC(=O)[C@H](CCCCN)NC(=O)[C@H](CO)NC(=O)[C@H](Cc1ccc(O)cc1)NC(=O)[C@@H](NC(=O)[C@H](CCSC)NC(=N)[C@H](Cc1c[nH]cn1)NC(=O)[C@@H](NC(=O)[C@@H](N)CCCNC(=N)N)C(C)CC)C(C)C)C(=O)N[C@@H](CCC(=O)O)C(=O)N[C@@H](Cc1ccc(O)cc1)C(=O)O", "note": "(stereo partly drawn) [Compound P140] (H-R[Ile(3ξ)][X1]VYSKR[pS]GKPRGYAF[Ile(3ξ)]EY-OH)", "values": [{"measurement": "Response rate (SRI-4)", "setting": "[1]; Anti dsDNA+ European study population, placebo 48.8%", "value": 71.1, "unit": "%"}, {"measurement": "Response rate (SRI-4)", "setting": "[1]; Anti dsDNA+ patients, full study population, 52 weeks, plus standard of care, placebo 47.3%", "value": 61.5, "unit": "%"}, {"measurement": "Patients in full remission", "setting": "[1]; Anti dsDNA+ patients, none in the placebo group", "value": 7.6, "unit": "%"}, {"measurement": "Tolerability", "setting": "[1]; SLE patients, 52 weeks", "value": "well tolerated"}, {"measurement": "Lymphocytic infiltration in the SGs", "setting": "[2]; 5 days after one single administration, hematoxylin/eosin", "value": "significantly reduced"}, {"measurement": "Weight of salivary glands (SGs)", "setting": "[2]; 5 days after one single iv injection", "value": "no statistically significant effect"}, {"measurement": "CD4+ T cells in SGs", "setting": "[2]; [4]", "value": "decreased"}, {"measurement": "Total number of B cells in SGs", "setting": "[2]; [4]", "value": "no statistically significant effect"}, {"measurement": "Total number of cells present in the SGs", "setting": "[2]; [4]", "value": "no apparent effect"}, {"measurement": "Stability (%) Linear equation: intercept", "setting": "[3]; 50 μg/mL", "value": 98.299}, {"measurement": "95% of stability (predicted)", "setting": "[3]; 50 μg/mL", "value": 1, "unit": "months"}, {"measurement": "Stability (%) Linear equation: slope", "setting": "[3]; 50 μg/mL", "value": "y = −0.099x +"}, {"measurement": "Stability (%) Linear equation: intercept", "setting": "[3]; 100 μg/mL", "value": 99.25}, {"measurement": "95% of stability (predicted)", "setting": "[3]; 100 μg/mL", "value": 2, "unit": "months"}, {"measurement": "Stability (%) Linear equation: slope", "setting": "[3]; 100 μg/mL", "value": "y = −0.0612x +"}, {"measurement": "Stability (%) Linear equation: intercept", "setting": "[3]; 200 μg/mL", "value": 99.535}, {"measurement": "95% of stability (predicted)", "setting": "[3]; 200 μg/mL", "value": 6, "unit": "months"}, {"measurement": "Stability (%) Linear equation: slope", "setting": "[3]; 200 μg/mL", "value": "y = −0.0238x +"}, {"measurement": "Stability (%)", "setting": "[3]; 50 μg/mL, day 0", "value": 100, "unit": "%"}, {"measurement": "Stability (%)", "setting": "[3]; 50 μg/mL, day 20", "value": 95.5, "unit": "%"}, {"measurement": "Stability (%)", "setting": "[3]; 50 μg/mL, day 40", "value": 93.2, "unit": "%"}, {"measurement": "Stability (%)", "setting": "[3]; 50 μg/mL, day 60", "value": 91.5, "unit": "%"}, {"measurement": "Stability (%)", "setting": "[3]; 50 μg/mL, day 80", "value": 90.3, "unit": "%"}, {"measurement": "Stability (%)", "setting": "[3]; 50 μg/mL, day 100", "value": 89.6, "unit": "%"}, {"measurement": "Stability (%)", "setting": "[3]; 100 μg/mL, day 0", "value": 100, "unit": "%"}, {"measurement": "Stability (%)", "setting": "[3]; 100 μg/mL, day 20", "value": 97.5, "unit": "%"}, {"measurement": "Stability (%)", "setting": "[3]; 100 μg/mL, day 40", "value": 96.2, "unit": "%"}, {"measurement": "Stability (%)", "setting": "[3]; 100 μg/mL, day 60", "value": 95.5, "unit": "%"}, {"measurement": "Stability (%)", "setting": "[3]; 100 μg/mL, day 80", "value": 94.5, "unit": "%"}, {"measurement": "Stability (%)", "setting": "[3]; 100 μg/mL, day 100", "value": 93.4, "unit": "%"}, {"measurement": "Stability (%)", "setting": "[3]; 200 μg/mL, day 0", "value": 100, "unit": "%"}, {"measurement": "Stability (%)", "setting": "[3]; 200 μg/mL, day 20", "value": 98.7, "unit": "%"}, {"measurement": "Stability (%)", "setting": "[3]; 200 μg/mL, day 40", "value": 98.5, "unit": "%"}, {"measurement": "Stability (%)", "setting": "[3]; 200 μg/mL, day 60", "value": 97.9, "unit": "%"}, {"measurement": "Stability (%)", "setting": "[3]; 200 μg/mL, day 80", "value": 97.6, "unit": "%"}, {"measurement": "Stability (%)", "setting": "[3]; 200 μg/mL, day 100", "value": 97.4, "unit": "%"}]}]}
